According to US20050271755A1, “Phytomedicinal compositions for the control of lipid accumulation and metabolism in mammals” (priority 2004, published 2005):

Tests used:
[1] = cited from earlier work
Human pancreatic lipase = biological target: T1, Human pancreatic lipase (Homo sapiens, UniProt P16233); experiment: Pancreatic Lipase (PL) inhibitory test (Lipase-PS kit); assay type: biochemical; conditions: FIG. 3 / FIG. 14
T1 construct: purchased Sigma-Aldrich
T1 sequence (P16233 17-465): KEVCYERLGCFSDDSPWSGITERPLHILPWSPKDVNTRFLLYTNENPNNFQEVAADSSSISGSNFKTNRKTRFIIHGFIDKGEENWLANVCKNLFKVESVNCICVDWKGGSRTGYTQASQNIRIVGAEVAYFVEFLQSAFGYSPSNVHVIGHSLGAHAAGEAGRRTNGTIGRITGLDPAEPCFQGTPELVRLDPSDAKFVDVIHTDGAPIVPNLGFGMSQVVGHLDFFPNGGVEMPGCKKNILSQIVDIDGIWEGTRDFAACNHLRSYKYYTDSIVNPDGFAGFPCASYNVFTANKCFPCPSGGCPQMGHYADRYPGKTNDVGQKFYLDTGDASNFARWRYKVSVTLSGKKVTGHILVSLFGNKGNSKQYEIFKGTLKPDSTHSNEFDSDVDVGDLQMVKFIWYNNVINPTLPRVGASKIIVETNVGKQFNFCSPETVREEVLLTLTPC
T1 sequence (P04118 23-112 partner): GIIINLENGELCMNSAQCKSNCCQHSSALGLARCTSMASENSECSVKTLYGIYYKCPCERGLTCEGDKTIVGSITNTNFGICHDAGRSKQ
Experimental: A Pancreatic Lipase (PL) inhibitory test was performed with a commercial kit (Lipase-PSTM Trinity Biotech USA, Jamestown, N.Y.). Lipase-PSTM reagents were obtained from Trinity Biotech USA (Lipase-PSTM was manufactured by Sigma Diagnostics (Procedure No. 805, Sigma-Aldrich, St. Louis, Mo. until 2003)). […] Louis, Mo.). […] Activator reagent (300 μL) was added and mixed by gentle inversion and the samples were incubated again for 3 min. at 37° C. The recorded rate of increase in absorbance at 550 nm due to the formation of quinone diimine dye was used to determine the pancreatic lipase activity in the samples prepared, as detailed in the literature. Lott, J. A., et al., Lipase Isoforms and Amylase Isoenzymes: Assays and Application in the Diagnosis of Acute Pancreatitis, Clinical Chemistry, 37, 361 (1991); Moreno […]., Fried […]., 2003, Inhibitory effects of grape seed extract on lipases, Nutrition 19, 876-879 (hereinafter “Moreno et al. 2003”).

| inhibitory effect on in vitro pancreatic lipase (in words) (Human pancreatic lipase) | Structure (SMILES) | diarrhea (in words) ([1]; literature) | inhibition of dietary fat absorption ([1]; recommended therapeutic dose of 120 mg three times a day) | inhibitory effect on in vitro pancreatic lipase (in words) (Human pancreatic lipase; listed as Esculetin) |
| --- | --- | --- | --- | --- |
| – | CCCCCCCCCCC[C@@H](C[C@@H]1OC(=O)[C@H]1CCCCCC)OC(=O)[C@H](CC(C)C)NC=O [Orlistat] | common side effect | about 30% | – |
| particularly strong inhibitory effect | O=c1ccc2cc(O)c(O)cc2o1 [esculetin, 6,7-dihydroxycoumarin] | – | – | strong inhibitory effect on PL in a dose dependent manner |
